Assay type in all cases: biochemical
In one assay the target is KLK4 (Homo sapiens, UniProt Q9Y5K2). As to the kind of experiment: KLK4 inhibition (selectivity). The conditions noted are these: read-out: KLK4 pIC50 (converted). The text has this:
Table 3 Activity of synthesized inhibitors against KLK6 and related proteases. | column: KLK4^a

The target of another assay is T1, Human thrombin (Homo sapiens, UniProt P00734).
T1 construct: Human thrombin was purchased from Biopur; purchased Biopur
In words: Thrombin enzyme inhibition assay. Conditions: read-out: Thrombin pIC50 (converted). As for the experimental part: (§1) Human thrombin was purchased from Biopur. Human trypsin was purchased from Polymun Scientific. Human Factor Xa was purchased from Enzo Life Sciences. Thrombin (20 nM), trypsin (0.000015 %) or Factor Xa (10 nM) were assayed in a similar manner to the KLKs but were incubated with compound for 20 min at room temperature in assay buffer (50 mM Tris HCl, pH 7.6, 100 mM NaCl, 1 mg/ml CHAPS, 0.05 % bovine serum albumin (BSA), 1 mM dithiothreitol (DTT)) before the addition of 5 μM, 2.5 μM or 1.5 μM Rhodamine 110 substrate (Cambridge bioscience ltd) respectively. Fluorescence intensity was then read at ex/em 485/535 following incubation for 1 h at room temperature (thrombin and factor Xa) or 20 min (trypsin).

In the next assay the target is KLK6 (Homo sapiens, UniProt Q92876). As to the kind of experiment: KLK6 enzymatic inhibition assay (fluorogenic Boc-Phe-Ser-Arg-AMC substrate). Details: made in house. Conditions: for LipE: LipE=pIC50 – logP (KLK6 pIC50, ALogP); for IC50: read-out: KLK6 pIC50 (converted). As for the experimental part:
Using our previously published KLK6 assay format,21 we performed a HTS with the European Lead Factory (ELF),22 and tested ∼350,000 substances at 10 μM for their ability to reduce KLK6‐catalyzed hydrolysis of the fluorogenic Boc‐Phe‐Ser‐Arg‐AMC peptide.
High Throughput Screen: The European Lead Factory library of ∼350,000 compounds was used for high throughput screening at the Pivot Park Screening Center facilities in Oss, The Netherlands. […] For SPR, Biacore T200 was used and KLK6 was immobilized onto a CM5 chip. […] An 8 point 1 in 3 dilution series of 1 (50 μM to 0.02 μM) was also applied at the beginning and end of each screening day.
Enzyme inhibition assays: All chemicals were purchased from Sigma Aldrich (Gillingham, UK) unless otherwise stated.

The target in a further assay is T2, Human Factor Xa (Homo sapiens, UniProt P00742).
T2 construct: Human Factor Xa was purchased from Enzo Life Sciences; purchased Enzo Life Sciences
In words: Factor Xa enzyme inhibition assay. The conditions noted are these: read-out: Factor Xa pIC50 (converted). As for the experimental part:
as §1

The next assay concerns the target T3, KLK7 (Homo sapiens, UniProt P49862).
T3 construct: purchased 2B scientific
In words: KLK7 enzyme inhibition assay. The conditions noted are these: read-out: KLK7 pIC50 (converted). As for the experimental part:
(§2) Enzyme inhibition assays: All chemicals were purchased from Sigma Aldrich (Gillingham, UK) unless otherwise stated. All experiments were conducted in 384 well black, low volume microplates (Greiner 784076) with a final volume of 20 μL and compounds were dispensed into assay plates using an ECHO 550 acoustic dispenser (Labcyte). KLK6 (5 nM) (prepared as in ref. 21) was incubated with test compounds for 30 min at room temperature in assay buffer (50 mM Tris, pH 7.5, 150 mM NaCl, 1 mM EDTA, 0.05 % tween 20, 0.1 % bovine serum albumin (BSA), 1 mM dithiothreitol (DTT)) before the reaction was started by addition of 20 μM Boc‐Phe‐Ser‐Arg‐AMC substrate (Bachem). Fluorescence intensity was read at ex/em 355/460 following incubation for 2 h in the dark at room temperature.
(§3) Assays using KLK7 and KLK8 (2B scientific) were conducted in the same manner as for KLK6 with the following exceptions. Both KLK7 and KLK8 required activation before assaying. KLK7 was combined with an equal volume of 20 μg/ml thermolysin (R&D systems) in activation buffer (50 mM Tris, pH 7.5, 10 mM CaCl2, 150 mM NaCl and 0.05 % Brij‐L23) and incubated at 37 °C for 2 h, the reaction was stopped with the addition of 100 mM EDTA in stop solution (50 mM Tris, 150 mM NaCl, pH 8.5). KLK8 was combined with an equal volume of 0.4 mU/mL lysyl endopeptidase (Alpha laboratories) in activation buffer (50 mM Tris, pH 8.0) and incubated at 37 °C for 30 min. Activated KLK7 (40 nM) and KLK8 (25 nM) were assayed with 40 μM Mca‐RPKPVE‐Nval‐WRK(Dnp)‐NH2 fluorogenic MMP substrate (R&D systems) and 25 μM Boc‐V‐P‐R‐AMC substrate (R&D systems), respectively.

The target in another assay is T4, KLK8 (Homo sapiens, UniProt O60259).
T4 construct: purchased 2B scientific
T4 sequence (O60259 33-260): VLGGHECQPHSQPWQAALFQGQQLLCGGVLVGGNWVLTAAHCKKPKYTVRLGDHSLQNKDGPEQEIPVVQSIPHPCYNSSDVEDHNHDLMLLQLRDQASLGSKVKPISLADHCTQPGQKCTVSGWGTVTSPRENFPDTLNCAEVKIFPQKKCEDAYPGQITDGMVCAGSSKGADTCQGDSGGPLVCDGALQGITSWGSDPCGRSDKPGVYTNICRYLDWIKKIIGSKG
As to the kind of experiment: KLK8 enzyme inhibition assay. The conditions noted are these: read-out: KLK8 pIC50 (converted). As for the experimental part:
as §2, §3

For a further assay, the target named is T5, Human trypsin (Homo sapiens, UniProt P07477).
T5 construct: purchased Polymun Scientific
In words: Trypsin enzyme inhibition assay. The conditions noted are these: for IC50: read-out: Trypsin pIC50 (converted). The procedure: Human thrombin was purchased from Biopur. Human trypsin was purchased from Polymun Scientific. Human Factor Xa was purchased from Enzo Life Sciences. […] Fluorescence intensity was then read at ex/em 485/535 following incubation for 1 h at room temperature (thrombin and factor Xa) or 20 min (trypsin).

Setting [1] is: synthesized inhibitors (Table 3), 8.6 = assay limit.
The mark [2] stands for this setting: resynthesized stereoisomers, enzymatic inhibition assay (Table 2).

Like-named read-outs stand apart in the source and are kept apart here. A value given as a limit tells only on which side of the number the result lay.

Sequence of KLK4 (Q9Y5K2 31-254, species assumed): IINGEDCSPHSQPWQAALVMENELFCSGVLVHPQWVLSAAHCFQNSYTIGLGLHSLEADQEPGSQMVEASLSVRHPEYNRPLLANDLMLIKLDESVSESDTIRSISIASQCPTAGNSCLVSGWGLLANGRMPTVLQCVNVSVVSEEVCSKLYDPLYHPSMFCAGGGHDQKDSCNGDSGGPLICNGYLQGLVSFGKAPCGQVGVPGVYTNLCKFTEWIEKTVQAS
T2 sequence (P00742 235-488 limits assumed): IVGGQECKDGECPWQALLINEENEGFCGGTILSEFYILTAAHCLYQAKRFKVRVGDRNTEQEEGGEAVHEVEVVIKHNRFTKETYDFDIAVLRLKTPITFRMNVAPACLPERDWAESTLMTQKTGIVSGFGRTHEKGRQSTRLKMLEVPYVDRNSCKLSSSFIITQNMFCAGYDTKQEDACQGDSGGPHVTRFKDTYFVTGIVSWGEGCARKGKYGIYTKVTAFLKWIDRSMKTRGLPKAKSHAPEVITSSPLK
T2 sequence (P00742 41-179 partner limits assumed): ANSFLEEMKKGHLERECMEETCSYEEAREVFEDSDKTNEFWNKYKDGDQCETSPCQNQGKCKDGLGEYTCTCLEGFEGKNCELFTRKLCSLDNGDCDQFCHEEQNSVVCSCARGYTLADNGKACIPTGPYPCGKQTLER
T3 sequence (P49862 30-253, species assumed): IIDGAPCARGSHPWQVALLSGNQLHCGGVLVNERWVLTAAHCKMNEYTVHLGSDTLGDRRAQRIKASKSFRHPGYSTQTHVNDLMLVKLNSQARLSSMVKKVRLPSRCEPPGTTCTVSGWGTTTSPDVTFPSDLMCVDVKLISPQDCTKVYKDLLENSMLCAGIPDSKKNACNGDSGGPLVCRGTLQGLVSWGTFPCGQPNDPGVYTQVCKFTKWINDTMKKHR

`CC[C@H](NC(=O)[C@H]1CN(c2ccc(C(=N)N)cc2)C(=O)O1)c1cccc(OC)c1` [Compound 24, (5R)‐3‐(4‐carbamimidoylphenyl)‐N‐[(1S)‐1‐(3‐methoxyphenyl)propyl]‐2‐oxo‐oxazolidine‐5‐carboxamide]: the IC50 at KLK4 is 2.51 µM; on Human thrombin, more than 20 µM; on KLK6 (setting [1]), 0.0316 µM; on Human Factor Xa, more than 20 µM; at KLK7, more than 20 µM; at KLK8 it was 5.01 µM. For the same molecule, the IC50 at Human trypsin was 1.58 µM. On KLK6, this molecule registered a LipE of 5.16. The “gain in potency for KLK6” value on KLK6 (relative to 5) is given as approximately 10 fold.

Regarding `CC(C)(NC(=O)[C@H]1CN(c2ccc(C(=N)N)cc2)C(=O)O1)C(=O)Nc1ccccc1` [Compound 28, (5R)‐3‐(4‐carbamimidoylphenyl)‐N‐(2‐methyl‐1‐oxo‐1‐(phenylamino)propan‐2‐yl)‐2‐oxooxazolidine‐5‐carboxamide], the IC50 on KLK4 is 1.58 µM; at KLK6 (setting [1]), 0.0316 µM; at Human trypsin, 6.31 µM. Further, the LipE on KLK6 is 6.20.

In the case of `CC(C)(NC(=O)[C@H]1CN(c2ccc(C(=N)N)cc2)C(=O)O1)c1ccccc1` [Compound 27, (5R)‐3‐(4‐carbamimidoylphenyl)‐2‐oxo‐N‐(2‐phenylpropan‐2‐yl)oxazolidine‐5‐carboxamide], the IC50 is 39.8 µM on KLK4; more than 20 µM on Human thrombin; 0.794 µM on KLK6 (setting [1]); more than 20 µM at Human Factor Xa; more than 20 µM on KLK7; more than 20 µM on KLK8. The IC50 on Human trypsin was more than 20 µM.

In the case of `CC[C@H](NC(=O)[C@H]1CN(c2ccc(C(=N)N)cc2)C(=O)O1)c1ccnc2ccccc12` [Compound 33, (5R)‐3‐(4‐carbamimidoylphenyl)‐2‐oxo‐N‐((1S)‐1‐(quinolin‐4‐yl)propyl)oxazolidine‐5‐carboxamide], the IC50 was 0.126 µM on KLK6 (setting [1]), more than 20 µM on KLK8 and 6.31 µM at Human trypsin.

On to `COc1cccc([C@H](C)NC(=O)[C@@H]2CCN(c3ccc(C(=N)N)cc3)C2)c1` [Compound 47, (3R)‐1‐(4‐carbamimidoylphenyl)‐N‐[(1S)‐1‐(3‐methoxyphenyl)ethyl]pyrrolidine‐3‐carboxamide], for which the IC50 at KLK4 is 1.26 µM; on Human thrombin it was more than 20 µM; on KLK6 (setting [1]), 0.794 µM; at Human Factor Xa it was more than 20 µM; on KLK7, more than 20 µM; at KLK8, 7.94 µM. Moreover, the IC50 on Human trypsin was 5.01 µM.

As to `COc1cccc(CNC(=O)[C@H]2CN(c3ccc(C(=N)N)cc3)C(=O)O2)c1` [Compound 23, (5R)‐3‐(4‐carbamimidoylphenyl)‐N‐(3‐methoxybenzyl)‐2‐oxooxazolidine‐5‐carboxamide], the IC50 on Human thrombin was more than 20 µM; at KLK6 (setting [1]) it was 3.98 µM; on Human Factor Xa, more than 20 µM; on KLK7, more than 20 µM; on KLK8, more than 20 µM; on Human trypsin it was more than 20 µM.

Molecule `CC[C@H](NC(=O)[C@H]1CN(c2ccc(C(=N)N)nc2)C(=O)O1)c1cccc2ccccc12` [Compound 34, (5R)‐3‐(6‐carbamimidoylpyridin‐3‐yl)‐N‐((1S)‐1‐(naphthalen‐1‐yl)propyl)‐2‐oxooxazolidine‐5‐carboxamide] had a LipE at KLK6 of 5.76. In addition, the IC50 at KLK6 (setting [1]) is 0.00501 µM; at KLK8, 0.501 µM; at Human trypsin it was 0.631 µM. The same molecule came in with a selectivity against trypsin at Human trypsin (KLK6 over trypsin) of more than 100 fold.

Take `COc1cccc([C@@H](C)NC(=O)[C@H]2CN(c3ccc(C(=N)N)cc3)C(=O)O2)c1` [Compound 11, (5R)‐3‐(4‐carbamimidoylphenyl)‐N‐[(R)‐1‐(3‐methoxyphenyl)ethyl]‐2‐oxooxazolidine‐5‐carboxamide]: the IC50 at Human thrombin, on KLK6 (setting [2]), at Human Factor Xa, at KLK7, at KLK8 and on Human trypsin was more than 20 µM each time.

Turning to `COc1cccc([C@@H](NC(=O)[C@H]2CN(c3ccc(C(=N)N)cc3)C(=O)O2)C2CC2)c1` [Compound 25, (5R)‐3‐(4‐carbamimidoylphenyl)‐N‐((1S)‐cyclopropyl(3‐methoxyphenyl)methyl)‐2‐oxooxazolidine‐5‐carboxamide], the IC50 at Human thrombin was more than 20 µM; at KLK6 (setting [1]), 0.0316 µM; at Human Factor Xa it was more than 20 µM; at KLK7 it was more than 20 µM; on KLK8, 0.794 µM; at Human trypsin it was 0.251 µM.

On to `CC[C@H](NC(=O)[C@H]1CN(c2ccc(CN)cc2)C(=O)O1)c1cccc2ccccc12` [Compound 35, (5R)‐3‐(4‐(aminomethyl)phenyl)‐N‐[(1S)‐1‐(naphthalen‐1‐yl)propyl]‐2‐oxooxazolidine‐5‐carboxamide], for which the IC50 on KLK4 is 5.01 µM; on KLK6 (setting [1]) it was 0.316 µM; at KLK8 it was 10 µM; on Human trypsin, 5.01 µM. Also, the KLK6 potency loss at KLK6 (relative to 32) was approximately 100 fold.

`CC(C)(NC(=O)[C@H]1CN(c2ccc(C(=N)N)cc2)C(=O)O1)c1cccc2ccccc12` [Compound 31, (5R)‐3‐(4‐carbamimidoylphenyl)‐N‐(2‐(naphthalen‐1‐yl)propan‐2‐yl)‐2‐oxooxazolidine‐5‐carboxamide]: at KLK6 (relative to 29), the KLK6 potency loss is approximately 6 fold. Also, the IC50 at KLK6 (setting [1]) is 0.0794 µM; at KLK8, more than 20 µM; at Human trypsin, 5.01 µM.

With `COc1cccc([C@H](C)NC[C@H]2CN(c3ccc(C(=N)N)cc3)C(=O)O2)c1` [Compound 49, 4‐((S)‐5‐((((S)‐1‐(3‐methoxyphenyl)ethyl)amino)methyl)‐2‐oxooxazolidin‐3‐yl)benzimidamide], the IC50 was more than 20 µM on Human thrombin; 10 µM at KLK6 (setting [1]); more than 20 µM on Human Factor Xa; more than 20 µM at KLK7; more than 20 µM at KLK8; more than 20 µM at Human trypsin. In addition, the KLK6 potency loss at KLK6 (relative to 5) is given as 40 fold.

`COc1cccc(C(C)(C)NC(=O)[C@H]2CN(c3ccc(C(=N)N)cc3)C(=O)O2)c1` [Compound 26, (5R)‐3‐(4‐carbamimidoylphenyl)‐N‐(2‐(3‐methoxyphenyl)propan‐2‐yl)‐2‐oxooxazolidine‐5‐carboxamide]: the IC50 is 0.158 µM on KLK6 (setting [1]), more than 20 µM on KLK8 and 10 µM at Human trypsin.

`COc1cccc([C@H](C)NC(=O)[C@@H]2CN(c3ccc(C(=N)N)cc3)C(=O)O2)c1` [Compound 10]: the IC50 at KLK6 (setting [2]) was more than 20 µM.
